Experimental findings from paper PMC4457528, “Identification of Novel Small Molecule Inhibitors of Oncogenic RET Kinase” (PLoS ONE, 2015) are described below.

Common to all, as to experiment: KinomeScan kinase panel, single concentration 10 µM
What all share (assay type): binding

Test [1] concerns the target T1, KinomeScan kinase panel (Homo sapiens, UniProt O15146).
T1 construct: purchased DiscoveRx (KinomeScan)
T1 sequence (O15146 24-869): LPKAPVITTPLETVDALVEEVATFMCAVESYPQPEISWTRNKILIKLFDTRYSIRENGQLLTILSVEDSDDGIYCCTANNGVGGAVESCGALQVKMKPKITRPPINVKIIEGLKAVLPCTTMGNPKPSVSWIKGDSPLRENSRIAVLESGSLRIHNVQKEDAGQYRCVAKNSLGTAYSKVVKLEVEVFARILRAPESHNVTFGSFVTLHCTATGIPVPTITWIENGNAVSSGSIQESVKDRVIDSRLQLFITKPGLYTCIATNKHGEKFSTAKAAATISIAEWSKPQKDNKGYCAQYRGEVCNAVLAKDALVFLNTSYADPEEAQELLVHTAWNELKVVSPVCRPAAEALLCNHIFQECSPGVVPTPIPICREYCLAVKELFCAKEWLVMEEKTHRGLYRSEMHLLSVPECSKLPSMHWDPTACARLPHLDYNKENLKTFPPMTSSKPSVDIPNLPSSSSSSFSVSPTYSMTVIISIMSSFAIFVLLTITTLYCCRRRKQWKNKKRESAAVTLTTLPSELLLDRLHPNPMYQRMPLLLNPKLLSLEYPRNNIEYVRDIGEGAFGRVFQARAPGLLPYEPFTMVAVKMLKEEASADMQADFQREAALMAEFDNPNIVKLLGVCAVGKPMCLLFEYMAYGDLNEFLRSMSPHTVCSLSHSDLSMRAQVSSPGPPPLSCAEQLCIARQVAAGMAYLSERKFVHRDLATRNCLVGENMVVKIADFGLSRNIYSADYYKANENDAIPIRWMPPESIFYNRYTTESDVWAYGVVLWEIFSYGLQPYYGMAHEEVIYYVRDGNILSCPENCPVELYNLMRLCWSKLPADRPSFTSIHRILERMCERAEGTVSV
To be noted: MUSK, 10 µM; read-out: score (%).

In test [2] the target is T2, KinomeScan kinase panel (Homo sapiens, UniProt P43405).
T2 construct: purchased DiscoveRx (KinomeScan)
The note with it: 10 µM.

For test [3], the target named is T3, KinomeScan kinase panel (Homo sapiens, UniProt Q96RR4).
T3 construct: purchased DiscoveRx (KinomeScan)
T3 sequence (Q96RR4 whole entry): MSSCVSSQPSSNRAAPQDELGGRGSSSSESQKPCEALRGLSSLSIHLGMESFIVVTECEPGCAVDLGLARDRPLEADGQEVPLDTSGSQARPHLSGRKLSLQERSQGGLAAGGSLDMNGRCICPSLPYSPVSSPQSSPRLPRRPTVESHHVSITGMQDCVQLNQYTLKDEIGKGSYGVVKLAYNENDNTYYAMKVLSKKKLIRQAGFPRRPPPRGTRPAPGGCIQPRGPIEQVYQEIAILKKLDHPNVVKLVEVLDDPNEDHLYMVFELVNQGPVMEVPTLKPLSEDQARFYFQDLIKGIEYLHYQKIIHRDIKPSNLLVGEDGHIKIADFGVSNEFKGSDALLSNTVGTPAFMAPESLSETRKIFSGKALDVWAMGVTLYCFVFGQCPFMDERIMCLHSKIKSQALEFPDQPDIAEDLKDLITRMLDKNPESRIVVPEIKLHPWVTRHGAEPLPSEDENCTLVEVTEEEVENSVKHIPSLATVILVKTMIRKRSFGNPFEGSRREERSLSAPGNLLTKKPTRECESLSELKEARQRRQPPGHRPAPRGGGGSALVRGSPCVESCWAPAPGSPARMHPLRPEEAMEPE
To be noted: CAMKK2, 10 µM; read-out: score (%).

Test [4] deals with T4, KinomeScan kinase panel (Homo sapiens, UniProt P29322).
T4 construct: purchased DiscoveRx (KinomeScan)
T4 sequence (P29322 28-1005): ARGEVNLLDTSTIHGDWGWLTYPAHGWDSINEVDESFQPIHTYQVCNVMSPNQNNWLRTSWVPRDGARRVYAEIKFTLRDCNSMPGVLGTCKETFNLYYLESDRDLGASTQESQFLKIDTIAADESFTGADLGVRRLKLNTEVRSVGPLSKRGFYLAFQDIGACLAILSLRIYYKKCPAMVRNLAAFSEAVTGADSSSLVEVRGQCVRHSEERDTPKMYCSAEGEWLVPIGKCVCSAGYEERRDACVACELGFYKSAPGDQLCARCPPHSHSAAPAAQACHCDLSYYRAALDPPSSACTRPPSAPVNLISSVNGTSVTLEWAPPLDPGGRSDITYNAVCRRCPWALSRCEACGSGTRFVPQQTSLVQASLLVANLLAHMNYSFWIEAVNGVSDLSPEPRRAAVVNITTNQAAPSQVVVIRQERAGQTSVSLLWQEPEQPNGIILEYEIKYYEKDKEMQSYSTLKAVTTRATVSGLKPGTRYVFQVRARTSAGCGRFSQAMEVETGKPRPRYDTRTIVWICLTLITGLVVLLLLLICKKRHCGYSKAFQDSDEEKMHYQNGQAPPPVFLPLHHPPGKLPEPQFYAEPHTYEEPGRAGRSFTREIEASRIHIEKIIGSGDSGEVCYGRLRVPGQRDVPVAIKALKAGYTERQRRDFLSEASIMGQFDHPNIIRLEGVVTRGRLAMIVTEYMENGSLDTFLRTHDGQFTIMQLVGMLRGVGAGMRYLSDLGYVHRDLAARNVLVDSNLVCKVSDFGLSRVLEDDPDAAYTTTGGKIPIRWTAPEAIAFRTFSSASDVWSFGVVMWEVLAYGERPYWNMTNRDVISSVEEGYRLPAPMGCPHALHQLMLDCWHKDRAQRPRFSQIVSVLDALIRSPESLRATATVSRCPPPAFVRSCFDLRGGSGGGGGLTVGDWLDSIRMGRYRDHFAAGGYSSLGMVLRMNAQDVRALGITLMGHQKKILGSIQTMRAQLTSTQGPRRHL
To be noted: EPHA8, 10 µM; read-out: score (%).

For test [5], the target named is T5, KinomeScan kinase panel (Homo sapiens, UniProt Q92918).
T5 construct: purchased DiscoveRx (KinomeScan)
T5 sequence (Q92918 whole entry): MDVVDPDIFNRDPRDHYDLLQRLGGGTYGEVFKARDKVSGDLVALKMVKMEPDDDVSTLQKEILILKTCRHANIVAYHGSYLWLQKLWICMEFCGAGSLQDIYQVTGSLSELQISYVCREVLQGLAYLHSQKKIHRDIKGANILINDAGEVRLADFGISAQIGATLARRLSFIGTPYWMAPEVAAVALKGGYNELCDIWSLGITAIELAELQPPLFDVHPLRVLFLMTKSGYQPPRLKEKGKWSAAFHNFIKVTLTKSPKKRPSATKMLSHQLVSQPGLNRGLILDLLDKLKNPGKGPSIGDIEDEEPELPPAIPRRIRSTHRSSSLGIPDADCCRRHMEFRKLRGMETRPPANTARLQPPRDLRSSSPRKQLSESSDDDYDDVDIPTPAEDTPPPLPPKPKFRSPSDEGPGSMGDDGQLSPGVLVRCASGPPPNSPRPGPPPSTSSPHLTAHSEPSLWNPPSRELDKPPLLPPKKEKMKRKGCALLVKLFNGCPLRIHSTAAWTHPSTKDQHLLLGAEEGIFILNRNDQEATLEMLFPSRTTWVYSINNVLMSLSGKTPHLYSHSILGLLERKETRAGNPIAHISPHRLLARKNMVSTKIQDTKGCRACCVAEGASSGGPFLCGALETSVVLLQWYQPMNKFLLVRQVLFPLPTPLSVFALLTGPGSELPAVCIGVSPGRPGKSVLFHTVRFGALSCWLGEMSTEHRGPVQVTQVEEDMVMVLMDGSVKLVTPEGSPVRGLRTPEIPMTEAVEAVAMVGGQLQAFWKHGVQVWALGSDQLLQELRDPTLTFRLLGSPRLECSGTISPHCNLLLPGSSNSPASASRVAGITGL
The note with it: read-out: score (%).

Read-outs that look alike come from different tables or passages of the source.

Turning to `CCN1CCN(Cc2ccc(NC(=O)c3ccc(C)c(NC(=O)c4cncc(-c5cccs5)c4)c3)cc2C(F)(F)F)CC1` [ALW-II-41-27], the remaining binding at 10 µM at KinomeScan kinase panel [1] is 0.1%; at KinomeScan kinase panel [3], greater than 30%; at KinomeScan kinase panel [4], 0.1%; at KinomeScan kinase panel [5] (HPK1, 10 µM), 0.75%. The “score (%)” value on KinomeScan kinase panel [2] (kinase SYK) amounted to 4.2%.

`CCN1CCN(Cc2ccc(NC(=O)c3ccc(C)c(/C=C/c4cnc5[nH]ccc5c4Cl)c3)cc2C(F)(F)F)CC1` [HG-6-63-01, (E)-3-(2-(4-chloro-1H-pyrrolo[2,3-b]pyridin-5-yl)vinyl)-N-(4-((4-ethylpiperazin-1-yl)methyl)-3-(trifluoromethyl)phenyl)-4-methylbenzamide]: the remaining binding at 10 µM on KinomeScan kinase panel [1] is 0.05%; at KinomeScan kinase panel [3], greater than 30%; on KinomeScan kinase panel [4], 0.1%; at KinomeScan kinase panel [5] (MAP4K1, 10 µM), 0.1%. Besides, the “score (%)” value on KinomeScan kinase panel [2] (SYK) is recorded as 1.8%.

For the compound `CCN1CCN(Cc2ccc(NC(=O)c3ccc(C)c(C#Cc4cccnc4)c3)cc2C(F)(F)F)CC1` [XMD15-44], the remaining binding at 10 µM is 0.05% on KinomeScan kinase panel [1]; 7.8% on KinomeScan kinase panel [3]; 0% on KinomeScan kinase panel [4]; 0.4% at KinomeScan kinase panel [5] (HPK1, 10 µM). The “score (%)” value on KinomeScan kinase panel [2] (kinase SYK) is 13%.
